“And” between values parts separate entries of the source, which are not always exact repeats. Identical values can stand only once. Toxic doses and inconclusive results are not listed. Cut-off read from the data, not from the text of the source: active = T/C of 150% or more; inactive = T/C below 125%.
Tested on: L1210 leukemia ip in BDF1 mice, survival T/C
Assay: NCI In Vivo Anticancer Drug Screen. Data for tumor model L1210 Leukemia (intraperitoneal) in B6D2F1 (BDF1) mice
Settings: endpoint: mean survival time, higher = longer survival
In short: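 In this screen, tumor-bearing mice given compound are compared to those given vehicle, and their survival values are reported as a treated-to-control quotient.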

[1] = dose: 100.0 mg/kg/injection, schedule: Q04DX003 (ip), vehicle: Klucel (hydroxypropylcellulose) (HPC)
[2] = dose: 100.0 mg/kg/injection, schedule: Q04DX002 (ip), vehicle: saline with Tween-80
[3] = dose: 100.0 mg/kg/injection, schedule: Q04DX003 (ip), vehicle: saline with Tween-80
[4] = dose: 200.0 mg/kg/injection, schedule: Q04DX002 (ip), vehicle: saline with Tween-80
[5] = dose: 200.0 mg/kg/injection, schedule: Q04DX003 (ip), vehicle: saline with Tween-80
[6] = dose: 400.0 mg/kg/injection, schedule: Q04DX002 (ip), vehicle: saline with Tween-80
[7] = dose: 400.0 mg/kg/injection, schedule: Q04DX003 (ip), vehicle: saline with Tween-80
[8] = dose: 100.0 mg/kg/injection, schedule: Q01DX009 (ip), vehicle: Klucel (hydroxypropylcellulose) (HPC)
[9] = dose: 200.0 mg/kg/injection, schedule: Q01DX009 (ip), vehicle: Klucel (hydroxypropylcellulose) (HPC)
[10] = dose: 200.0 mg/kg/injection, schedule: Q04DX003 (ip), vehicle: Klucel (hydroxypropylcellulose) (HPC)
[11] = dose: 400.0 mg/kg/injection, schedule: Q01DX009 (ip), vehicle: Klucel (hydroxypropylcellulose) (HPC)
[12] = dose: 400.0 mg/kg/injection, schedule: Q04DX003 (ip), vehicle: Klucel (hydroxypropylcellulose) (HPC)
[13] = dose: 100.0 mg/kg/injection, schedule: Q01DX001 (ip), vehicle: carboxymethylcellulose (CMC)
[14] = dose: 200.0 mg/kg/injection, schedule: Q01DX001 (ip), vehicle: carboxymethylcellulose (CMC)
[15] = dose: 100.0 mg/kg/injection, schedule: Q01DX009 (ip), vehicle: saline
[16] = dose: 100.0 mg/kg/injection, schedule: Q04DX003 (ip), vehicle: saline
[17] = dose: 200.0 mg/kg/injection, schedule: Q01DX009 (ip), vehicle: saline
[18] = dose: 200.0 mg/kg/injection, schedule: Q04DX003 (ip), vehicle: saline
[19] = dose: 400.0 mg/kg/injection, schedule: Q04DX003 (ip), vehicle: saline

Measured: T/C

CCOC(=O)c1cnc(SC)nc1N(C)c1ccccc1
inactive: dose: 44.0 mg/kg/injection, schedule: Q04DX003 (ip), vehicle: Klucel (hydroxypropylcellulose) (HPC) 98 % of control | dose: 66.0 mg/kg/injection, schedule: Q04DX003 (ip), vehicle: Klucel (hydroxypropylcellulose) (HPC) 99 % of control | dose: 67.0 mg/kg/injection, schedule: Q04DX003 (ip), vehicle: Klucel (hydroxypropylcellulose) (HPC) 95 % of control | [1] 98 % of control and 101 % of control | dose: 150.0 mg/kg/injection, schedule: Q04DX003 (ip), vehicle: Klucel (hydroxypropylcellulose) (HPC) 95 % of control and 97 % of control

COC(=O)c1ccccc1NC(=S)NC(=O)C(C)Oc1ccccc1 (centres undefined)
inactive: dose: 100.0 mg/kg/injection, schedule: Q01DX001 (ip), vehicle: saline with Tween-80 111 % of control | dose: 100.0 mg/kg/injection, schedule: Q01DX009 (ip), vehicle: saline with Tween-80 108 % of control and 109 % of control | [2] 96 % of control and 108 % of control | [3] 107 % of control | dose: 200.0 mg/kg/injection, schedule: Q01DX001 (ip), vehicle: saline with Tween-80 95 % of control | dose: 200.0 mg/kg/injection, schedule: Q01DX009 (ip), vehicle: saline with Tween-80 95 % of control and 100 % of control | [4] 98 % of control and 107 % of control | [5] 98 % of control | dose: 400.0 mg/kg/injection, schedule: Q01DX001 (ip), vehicle: saline with Tween-80 98 % of control | dose: 400.0 mg/kg/injection, schedule: Q01DX009 (ip), vehicle: saline with Tween-80 92 % of control | [6] 101 % of control and 104 % of control | [7] 106 % of control

Cc1cccc(NC(=O)NCCCl)c1Cl
inactive: [8] 97 % of control | [1] 97 % of control | [9] 97 % of control | [10] 94 % of control | [11] 100 % of control | [12] 94 % of control

CC(C)(C)NC(=O)C(Br)c1ccccc1 (centres undefined)
inactive: [2] 94 % of control | [4] 105 % of control | [6] 94 % of control

O=S1(=O)C(Cc2ccccc2)CCC1Cc1ccccc1 (centres undefined)
inactive: [1] 102 % of control | [10] 94 % of control | [12] 102 % of control

CCCCN(C)N=Nc1ccccc1C(=O)OC
inactive: [13] 107 % of control | [14] 117 % of control

N#CN1CCOCC1
inactive: dose: 44.0 mg/kg/injection, schedule: Q01DX Z (ip), vehicle: saline 101 % of control | dose: 66.0 mg/kg/injection, schedule: Q01DX Z (ip), vehicle: saline 91 % of control | [15] 97 % of control | dose: 100.0 mg/kg/injection, schedule: Q01DX Z (ip), vehicle: saline 101 % of control | [16] 95 % of control | [17] 103 % of control | [18] 105 % of control

COC(=O)N1CC=CCN1C(=O)OC
inactive: [16] 94 % of control | [18] 116 % of control | [19] 115 % of control

CCCCC=C(C)C
inactive: dose: 50.0 mg/kg/injection, schedule: Q01DX001 (ip), vehicle: carboxymethylcellulose (CMC) 106 % of control | [13] 93 % of control | [14] 104 % of control | dose: 400.0 mg/kg/injection, schedule: Q01DX001 (ip), vehicle: carboxymethylcellulose (CMC) 104 % of control

c1ccc([CH2][Ge]([c]2ccccc2)([c]2ccccc2)[c]2ccccc2)cc1
inactive: dose: 25.6 mg/kg/injection, schedule: Q04DX002 (ip), vehicle: saline with Tween-80 89 % of control | dose: 64.0 mg/kg/injection, schedule: Q04DX002 (ip), vehicle: saline with Tween-80 93 % of control | [3] 104 % of control | dose: 160.0 mg/kg/injection, schedule: Q04DX002 (ip), vehicle: saline with Tween-80 89 % of control | [5] 96 % of control | [6] 89 % of control | [7] 102 % of control

CN(C)c1ccc(-c2cc[n+](C)cc2)cc1
inactive: dose: 3.13 mg/kg/injection, schedule: Q04DX003 (ip), vehicle: saline 101 % of control | dose: 6.25 mg/kg/injection, schedule: Q04DX003 (ip), vehicle: saline 101 % of control | dose: 12.5 mg/kg/injection, schedule: Q04DX003 (ip), vehicle: saline 104 % of control

CCC[Si](Cl)(CCC)CCC
inactive: dose: 18.75 mg/kg/injection, schedule: Q01DX009 (ip), vehicle: acetone 98 % of control | dose: 37.5 mg/kg/injection, schedule: Q01DX009 (ip), vehicle: acetone 94 % of control | dose: 37.5 mg/kg/injection, schedule: Q04DX003 (ip), vehicle: acetone 99 % of control | dose: 75.0 mg/kg/injection, schedule: Q01DX001 (ip), vehicle: acetone 93 % of control | dose: 75.0 mg/kg/injection, schedule: Q01DX009 (ip), vehicle: acetone 96 % of control | dose: 75.0 mg/kg/injection, schedule: Q04DX003 (ip), vehicle: acetone 94 % of control | dose: 150.0 mg/kg/injection, schedule: Q01DX001 (ip), vehicle: acetone 101 % of control | dose: 150.0 mg/kg/injection, schedule: Q04DX003 (ip), vehicle: acetone 100 % of control | dose: 300.0 mg/kg/injection, schedule: Q01DX001 (ip), vehicle: acetone 86 % of control

CC1=CC(=O)C=C(C(C)C)/C1=C(\c1ccccc1C(=O)O)c1c(C)cc(OP(=O)(O)O)cc1C(C)C
inactive: [15] 103 % of control | [16] 106 % of control | [17] 102 % of control | [18] 97 % of control | dose: 400.0 mg/kg/injection, schedule: Q01DX009 (ip), vehicle: saline 100 % of control | [19] 98 % of control

O=C1OC(=O)C2C1C1C3C(=O)C4C5C(=O)C3C2C5C41 (centres undefined)
inactive: dose: 75.0 mg/kg/injection, schedule: Q04DX002 (ip), vehicle: Klucel (hydroxypropylcellulose) (HPC) 97 % of control | dose: 150.0 mg/kg/injection, schedule: Q04DX002 (ip), vehicle: Klucel (hydroxypropylcellulose) (HPC) 97 % of control | dose: 300.0 mg/kg/injection, schedule: Q04DX002 (ip), vehicle: Klucel (hydroxypropylcellulose) (HPC) 97 % of control

C/C(=C/C1CC(=O)OC1=O)CC(C)(C)C (centres undefined)
inactive: dose: 222.0 mg/kg/injection, schedule: Q01DX Z (ip), vehicle: methylcellulose (MC) 108 % of control | dose: 333.0 mg/kg/injection, schedule: Q01DX Z (ip), vehicle: methylcellulose (MC) 92 % of control

Cc1cccc(Cl)c1NC(=O)COc1ccc(Cl)cc1
inactive: [8] 102 % of control | [9] 89 % of control | [11] 93 % of control

CC1(C)c2ccccc2C(C)(C)[N+]1(C)C
inactive: dose: 100.0 mg/kg/injection, schedule: Q01DX001 (ip), vehicle: other 101 % of control

Source: PubChem BioAssay AID248 (DTP/NCI, 2004)
